The nature of data set [1]: log P by HPLC on reversed phase columns (EEC directive 79/831 Annex V.A8). The format is physicochemical. Conditions: pH 2.7, 0.1% formic acid in water / acetonitrile gradient. The method, then:
Measurement of log P values was performed according EEC directive 79/831 Annex V.A8 by HPLC (High Performance Liquid Chromatography) on reversed phase columns with the following method:
measurement of LC-MS was done at pH 2.7 with 0.1% formic acid in water and with acetonitrile (contains 0.1% formic acid) as eluent with a linear gradient from 10% acetonitrle to 95% acetonitrile.
Calibration was done with not branched alkan2-ones (with 3 to 16 carbon atoms) with known log P-values (measurement of log P values using retention times with linear interpolation between successive alkanones). lambda-maX-values were determined using UV-spectra from 200 nm to 400 nm and the peak values of the chromatographic signals.

The test system of the next data set is Phytophthora infestans. The class given is in vivo. The conditions noted are these: tomato, preventive spray, 100 ppm of active ingredient, evaluated 7 days after inoculation.

In data set [1], `Cn1nnnc1C(=NOCc1cccc(NC(=O)C2CC(=O)c3cc(F)ccc3O2)n1)c1ccccc1` (centres unmarked) [Example 1] registered a logp of 3.46. Moreover, the Efficacy % with Phytophthora infestans came out at 93%.
The corresponding values for `Cn1nnnc1C(=NOCc1cccc(NC(=O)C2CCc3cc(I)ccc3O2)n1)c1ccccc1` (centres unmarked) [Example 2] are 4.7 and 95%.
The corresponding values for `COc1cccc2c1OC(C(=O)Nc1cccc(CON=C(c3ccccc3)c3nnnn3C)n1)CC2` (centres unmarked) [Example 3] are 3.92 and 95%.
`Cn1nnnc1C(=NOCc1cccc(NC(=O)C2CCc3cc(F)ccc3O2)n1)c1ccccc1` (centres unmarked) [Example 4] displayed a logp in data set [1] of 4.01. In addition, the Efficacy % in the data set with Phytophthora infestans is given as 95%.
In the case of `Cn1nnnc1C(=NOCc1cccc(NC(=O)C2COc3ccc(C(C)(C)C)cc3O2)n1)c1ccccc1` (centres unmarked) [Example 6], the logp in data set [1] is given as 4.92. The same compound showed an Efficacy % with Phytophthora infestans of 93%.
The corresponding values for `Cc1ccc2c(c1)OC(C(=O)Nc1nc(CON=C(c3ccccc3)c3nnnn3C)cs1)CO2` (centres unmarked) [Example 12] are 3.78 and 95%.
For `Cc1cccc2c1OC(C(=O)Nc1nc(CON=C(c3ccccc3)c3nnnn3C)cs1)CO2` (centres unmarked) [Example 13] the same measures were 3.83 and 98%.
The corresponding values for `Cn1nnnc1C(=NOCc1csc(NC(=O)C2COc3ccccc3O2)n1)c1ccccc1` (centres unmarked) [Example 14] are 3.46 and 90%.
As to `Cn1nnnc1C(=NOCc1csc(NC(=O)C2COc3ccc(C(C)(C)C)cc3O2)n1)c1ccccc1` (centres unmarked) [Example 15], the logp in data set [1] came to 4.62. In the data set on Phytophthora infestans, this compound gave an Efficacy % of 90%.
Consider `Cn1nnnc1C(=NOCc1csc(NC(=O)C2CC(=O)c3cc(F)ccc3O2)n1)c1ccccc1` (centres unmarked) [Example 16], for which, in data set [1], the logp was determined as 3.29. The compound further registered an Efficacy % with Phytophthora infestans of 93%.
The compound `Cn1nnnc1C(=NOCc1csc(NC(=O)C2CCc3cc(I)ccc3O2)n1)c1ccccc1` (centres unmarked) [Example 17] gave a logp in data set [1] of 4.44. In the data set with Phytophthora infestans, the Efficacy % is 93%.
Regarding `COc1cccc2c1OC(C(=O)Nc1nc(CON=C(c3ccccc3)c3nnnn3C)cs1)CC2` (centres unmarked) [Example 18], the logp in data set [1] turned out to be 3.64. In the data set on Phytophthora infestans, this compound came in with an Efficacy % of 95%.
Take `Cn1nnnc1C(=NOCc1csc(NC(=O)C2CCc3cc(F)ccc3O2)n1)c1ccccc1` (centres unmarked) [Example 19]: the logp in data set [1] amounted to 3.8. For the same compound, the Efficacy % in the data set with Phytophthora infestans came out at 95%.
Turning to `Cn1nnnc1C(=NOCc1csc(NC(=O)C2CCc3ccccc3O2)n1)c1ccccc1` (centres unmarked) [Example 20], the logp in data set [1] is recorded as 3.78. Further, the Efficacy % with Phytophthora infestans is 93%.
The compound `Cc1nnnn1C(=NOCc1cccc(NC(=O)C2CCc3cc(I)ccc3O2)n1)c1ccccc1` (centres unmarked) [Example 21] had a logp in data set [1] of 4.81. In the data set with Phytophthora infestans, the Efficacy % came to 80%.
For `COc1cccc2c1OC(C(=O)Nc1cccc(CON=C(c3ccccc3)n3nnnc3C)n1)CC2` (centres unmarked) [Example 22] the same measures were 3.99 and 80%.
In turn, `Cc1nnnn1C(=NOCc1cccc(NC(=O)C2CCc3cc(F)ccc3O2)n1)c1ccccc1` (centres unmarked) [Example 23] came in with a logp in data set [1] of 4.11. Moreover, the Efficacy % with Phytophthora infestans is 90%.
For `Cc1nnnn1C(=NOCc1cccc(NC(=O)C2CCc3ccccc3O2)n1)c1ccccc1` (centres unmarked) [Example 24] the same measures were 4.08 and 93%.
As to `Cc1nnnn1C(=NOCc1cccc(NC(=O)C2COc3ccc(C(C)(C)C)cc3O2)n1)c1ccccc1` (centres unmarked) [Example 25], in data set [1], the logp turned out to be 5.03. In addition, the Efficacy % with Phytophthora infestans is on record as 93%.
`Cn1nnnc1C(=NOCc1csc(NC(=O)C2COc3ccccc32)n1)c1ccccc1` (centres unmarked) [Example 49] had a logp in data set [1] of 3.19.
The same measure, in the same setting: with `Cc1nnnn1C(=NOCc1cccc(NC(=O)C2COc3ccccc32)n1)c1ccccc1` (centres unmarked) [Example 58] the figure was 3.39.
The same measure, in the same setting: with `Cn1nnnc1C(=NOCc1cccc(NC(=O)C2COc3ccccc32)n1)c1ccccc1` (centres unmarked) [Example 61] the figure was 3.37.

For the origin of these results see patent US8796463B2 (priority 2009, dated 2014).
